# Laboratory results as given in ChEMBL document CHEMBL3881530, “Compounds and methods for inhibiting NHE-mediated antiport in the treatment of disorders associated with fluid retention or salt overload and gastrointestinal tract disorders” (2013).
# pIC50: −log10 of the molar value.
# Experiments:
# [1] = molecular target: Sodium/hydrogen exchanger 1 (Homo sapiens, UniProt P19634); assay: Inhibition of NHE-1 (unknown origin)
# [2] = molecular target: T1, Sodium/hydrogen exchanger 2 (Homo sapiens, UniProt Q9UBY0); assay: Inhibition of NHE-2 (unknown origin)
# T1 sequence (Q9UBY0 whole entry): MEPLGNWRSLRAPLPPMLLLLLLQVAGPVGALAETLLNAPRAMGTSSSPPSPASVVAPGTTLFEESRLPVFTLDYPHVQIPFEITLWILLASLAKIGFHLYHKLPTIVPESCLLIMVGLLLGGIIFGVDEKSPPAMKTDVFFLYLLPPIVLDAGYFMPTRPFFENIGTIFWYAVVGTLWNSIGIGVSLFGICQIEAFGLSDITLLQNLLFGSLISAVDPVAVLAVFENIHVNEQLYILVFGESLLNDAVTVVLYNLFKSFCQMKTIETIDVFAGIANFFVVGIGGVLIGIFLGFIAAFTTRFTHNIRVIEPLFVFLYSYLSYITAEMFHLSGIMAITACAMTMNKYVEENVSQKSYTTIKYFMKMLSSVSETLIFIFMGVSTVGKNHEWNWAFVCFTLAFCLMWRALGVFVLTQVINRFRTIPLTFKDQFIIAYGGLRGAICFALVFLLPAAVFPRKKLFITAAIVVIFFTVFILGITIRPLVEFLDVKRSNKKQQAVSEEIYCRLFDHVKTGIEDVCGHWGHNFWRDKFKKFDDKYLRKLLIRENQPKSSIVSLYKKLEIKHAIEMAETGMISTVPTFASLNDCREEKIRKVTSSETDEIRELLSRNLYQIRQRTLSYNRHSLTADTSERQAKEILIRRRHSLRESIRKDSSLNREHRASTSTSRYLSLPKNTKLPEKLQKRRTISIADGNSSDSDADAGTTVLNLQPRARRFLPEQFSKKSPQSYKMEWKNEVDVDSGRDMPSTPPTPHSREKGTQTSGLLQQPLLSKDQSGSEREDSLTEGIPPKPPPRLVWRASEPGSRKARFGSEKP
# [3] = molecular target: T2, Sodium/hydrogen exchanger 5 (Homo sapiens, UniProt Q14940); assay: Inhibition of NHE-5 (unknown origin)
# T2 sequence (Q14940 whole entry): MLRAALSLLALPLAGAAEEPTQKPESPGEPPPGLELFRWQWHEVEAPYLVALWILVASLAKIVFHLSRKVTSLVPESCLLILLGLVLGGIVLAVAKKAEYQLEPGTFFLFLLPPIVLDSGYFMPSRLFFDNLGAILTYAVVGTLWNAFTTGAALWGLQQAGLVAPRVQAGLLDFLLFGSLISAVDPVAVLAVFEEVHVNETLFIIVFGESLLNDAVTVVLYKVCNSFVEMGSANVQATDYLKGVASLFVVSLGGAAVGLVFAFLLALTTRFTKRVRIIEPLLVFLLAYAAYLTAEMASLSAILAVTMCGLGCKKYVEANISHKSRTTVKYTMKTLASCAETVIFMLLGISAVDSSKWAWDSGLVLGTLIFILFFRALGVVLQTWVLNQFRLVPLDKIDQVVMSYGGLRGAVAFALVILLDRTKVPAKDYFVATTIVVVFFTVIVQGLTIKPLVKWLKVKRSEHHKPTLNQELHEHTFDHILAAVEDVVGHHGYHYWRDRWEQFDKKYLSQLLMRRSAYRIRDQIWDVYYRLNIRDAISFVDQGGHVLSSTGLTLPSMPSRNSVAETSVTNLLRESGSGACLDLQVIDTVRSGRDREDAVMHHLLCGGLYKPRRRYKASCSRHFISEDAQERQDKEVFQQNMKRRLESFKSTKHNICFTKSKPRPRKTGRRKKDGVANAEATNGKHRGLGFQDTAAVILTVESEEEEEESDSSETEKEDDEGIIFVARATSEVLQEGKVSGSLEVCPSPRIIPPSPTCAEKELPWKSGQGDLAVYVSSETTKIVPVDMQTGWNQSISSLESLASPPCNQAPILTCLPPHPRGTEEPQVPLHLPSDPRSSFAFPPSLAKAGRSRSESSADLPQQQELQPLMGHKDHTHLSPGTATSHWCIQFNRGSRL
# [4] = molecular target: T3, Sodium/hydrogen exchanger 3 (Homo sapiens, UniProt P48764); assay: Inhibition of NHE-3 (unknown origin)
# T3 sequence (P48764 whole entry): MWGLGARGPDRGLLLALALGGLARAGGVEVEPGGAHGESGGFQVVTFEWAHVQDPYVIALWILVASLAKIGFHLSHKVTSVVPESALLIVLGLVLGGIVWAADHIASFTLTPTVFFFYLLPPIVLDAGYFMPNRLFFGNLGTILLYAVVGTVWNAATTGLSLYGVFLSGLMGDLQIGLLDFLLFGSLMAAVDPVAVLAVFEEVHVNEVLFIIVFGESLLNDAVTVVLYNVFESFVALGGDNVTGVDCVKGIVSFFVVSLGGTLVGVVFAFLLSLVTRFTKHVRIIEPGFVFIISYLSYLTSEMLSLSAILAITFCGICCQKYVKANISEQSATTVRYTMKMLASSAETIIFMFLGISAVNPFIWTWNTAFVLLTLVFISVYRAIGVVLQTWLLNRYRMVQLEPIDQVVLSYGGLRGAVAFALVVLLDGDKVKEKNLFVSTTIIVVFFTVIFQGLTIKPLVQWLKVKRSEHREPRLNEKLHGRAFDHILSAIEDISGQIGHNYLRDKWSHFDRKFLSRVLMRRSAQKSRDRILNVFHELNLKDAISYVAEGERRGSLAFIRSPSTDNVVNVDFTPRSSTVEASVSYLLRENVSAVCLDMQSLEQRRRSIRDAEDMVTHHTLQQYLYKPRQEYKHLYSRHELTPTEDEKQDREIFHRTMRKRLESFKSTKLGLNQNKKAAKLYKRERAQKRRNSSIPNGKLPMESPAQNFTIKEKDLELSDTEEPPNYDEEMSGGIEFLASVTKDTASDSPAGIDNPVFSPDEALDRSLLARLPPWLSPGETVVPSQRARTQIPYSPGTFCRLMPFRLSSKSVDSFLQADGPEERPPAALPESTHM
# [5] = system: Rattus norvegicus; assay: Effect on fecal water content in Sprague-Dawley rat at 3 mg/kg administered via oral gavage measured after 16 hrs relative to control; format: functional
# [6] = system: Rattus norvegicus; assay: Decrease in urinary sodium level in Sprague-Dawley rat administered via oral gavage measured after 16 hrs by ion chromatographic analysis; format: functional
# [7] = Drug recovery in Sprague-Dawley rat feces at 0.1 mg/kg administered via oral gavage measured after 72 hrs by LC/MS/MS analysis; format: ADME, organism-based; settings: faeces, read-out: Drug recovery
# [8] = Cmax in Sprague-Dawley rat at 28 mg/kg administered via oral gavage measured up to 4 hrs by LC/MS/MS analysis; format: ADME, organism-based; parameters: dose 28 mg/kg, route oral; settings: in vivo
# [9] = AUC in Sprague-Dawley rat at 28 mg/kg administered via oral gavage measured up to 4 hrs by LC/MS/MS analysis; format: ADME, organism-based; parameters: time < 4 hr, dose 28 mg/kg, route oral; settings: in vivo
# [10] = Cmax in Sprague-Dawley rat at 2.2 mg/kg administered via oral gavage measured up to 4 hrs by LC/MS/MS analysis; format: ADME, organism-based; parameters: dose 2.2 mg/kg, route oral; settings: in vivo
# [11] = AUC in Sprague-Dawley rat at 2.2 mg/kg administered via oral gavage measured up to 4 hrs by LC/MS/MS analysis; format: ADME, organism-based; parameters: time < 4 hr, dose 2.2 mg/kg, route oral; settings: in vivo
# Sodium/hydrogen exchanger 1, sequence (P19634 whole entry): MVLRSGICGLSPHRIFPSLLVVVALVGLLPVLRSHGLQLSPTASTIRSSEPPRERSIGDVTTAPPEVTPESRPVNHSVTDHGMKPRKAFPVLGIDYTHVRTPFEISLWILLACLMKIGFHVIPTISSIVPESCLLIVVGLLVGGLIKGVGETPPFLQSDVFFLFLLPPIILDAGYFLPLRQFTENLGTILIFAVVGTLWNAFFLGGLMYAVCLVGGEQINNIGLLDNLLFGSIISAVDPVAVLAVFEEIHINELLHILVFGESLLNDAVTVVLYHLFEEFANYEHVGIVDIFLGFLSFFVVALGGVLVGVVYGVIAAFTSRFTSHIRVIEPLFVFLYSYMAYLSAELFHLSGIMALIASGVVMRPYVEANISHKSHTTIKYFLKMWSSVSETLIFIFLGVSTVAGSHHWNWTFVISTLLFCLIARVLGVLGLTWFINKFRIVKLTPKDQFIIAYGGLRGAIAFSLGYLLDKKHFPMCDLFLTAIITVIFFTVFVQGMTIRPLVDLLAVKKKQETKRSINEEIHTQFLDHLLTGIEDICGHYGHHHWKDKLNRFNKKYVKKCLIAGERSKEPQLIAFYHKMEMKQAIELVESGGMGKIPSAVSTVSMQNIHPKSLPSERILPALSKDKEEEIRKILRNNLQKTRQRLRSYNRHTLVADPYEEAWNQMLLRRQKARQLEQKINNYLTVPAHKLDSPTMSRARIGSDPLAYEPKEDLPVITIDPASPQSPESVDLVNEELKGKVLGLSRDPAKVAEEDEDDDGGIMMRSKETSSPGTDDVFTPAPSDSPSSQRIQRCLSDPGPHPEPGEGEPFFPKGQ
structure (smiles),measurement,setting,value
Cc1cc(-n2cccc2)c(S(C)(=O)=O)cc1C(=O)NC(=N)N [ENIPORIDE],pIC50,[1],6.42 to 8.30
same,pIC50,[2],4.77 to 5.70
same,pIC50,[3],< 4.52
same,pIC50,[4],3.34 to 4.00
CC1(C)[C@H](C(=O)N=C(N)N)[C@H]1c1cccc2c1CCO2,pIC50,[2],5.74
same,pIC50,[4],< 4.52
CN1Cc2c(Cl)cc(Cl)cc2C(c2ccc(S(=O)(=O)NCCOCCOCCNC(=O)CCC(=O)NCCOCCOCCNS(=O)(=O)c3ccc(C4CN(C)Cc5c(Cl)cc(Cl)cc54)cc3)cc2)C1 (centres undefined),Activity,[5],121%
CN1Cc2c(Cl)cc(Cl)cc2C(c2cccc(S(=O)(=O)NCCOCCOCCNC(=O)c3ccc(C(=O)NCCOCCOCCNS(=O)(=O)c4cccc(C5CN(C)Cc6c(Cl)cc(Cl)cc65)c4)cc3)c2)C1 (centres undefined),Activity,[5],117%
"CN1Cc2c(Cl)cc(Cl)cc2[C@H](c2ccc(S(=O)(=O)NCCOCCOCCNC(=O)COCC(=O)NCCOCCOCCNS(=O)(=O)c3ccc([C@@H]4CN(C)Cc5c(Cl)cc(Cl)cc54)cc3)cc2)C1.Cl.Cl (single isomer, unassigned)",Activity,[5],127%
same,Activity,[6],Dose-dependent effect
"CN1Cc2c(Cl)cc(Cl)cc2[C@H](c2cccc(S(=O)(=O)NCCOCCOCCNC(=O)NCCCCNC(=O)NCCOCCOCCNS(=O)(=O)c3cccc([C@@H]4CN(C)Cc5c(Cl)cc(Cl)cc54)c3)c2)C1.Cl.Cl (single isomer, unassigned) [TENAPANOR HYDROCHLORIDE]",Activity,[5],134%
same,dose excreted at 72 h,[7],90.5 to 93.8%
C/C(=C\c1cccc(/C=C(\C)C(=O)NC(=N)N)c1)C(=O)N=C(N)N,pIC50,[1],8.70
same,pIC50,[2],7.15
same,pIC50,[4],5.88
CC(C)c1ccc(C(=O)NC(=N)N)cc1S(C)(=O)=O [CARIPORIDE],pIC50,[1],5.47 to 7.52
same,pIC50,[2],4.21 to 5.37
same,pIC50,[3],< 4.52
same,pIC50,[4],4.00 to 6.00
"CN1Cc2c(Cl)cc(Cl)cc2[C@H](c2cccc(S(=O)(=O)NCCOCCOCCNC(=O)Nc3ccc(NC(=O)NCCOCCOCCNS(=O)(=O)c4cccc([C@@H]5CN(C)Cc6c(Cl)cc(Cl)cc65)c4)cc3)c2)C1.Cl.Cl (single isomer, unassigned)",Activity,[5],130%
same,dose excreted at 72 h,[7],75.8 to 104%
"CN1Cc2c(Cl)cc(Cl)cc2[C@H](c2ccc(S(=O)(=O)NCCOCCOCCNC(=O)CCC(=O)NCCOCCOCCNS(=O)(=O)c3ccc([C@@H]4CN(C)Cc5c(Cl)cc(Cl)cc54)cc3)cc2)C1.Cl.Cl (single isomer, unassigned)",Activity,[5],124%
CN1Cc2c(Cl)cc(Cl)cc2C(c2cccc(NCCOCCOCCOCCNC(=O)C(O)C(O)C(=O)NCCOCCOCCOCCNc3cccc(C4CN(C)Cc5c(Cl)cc(Cl)cc54)c3)c2)C1 (centres undefined),Cmax,[8],23 ng/mL
same,AUC at 4 h,[9],19 ng·h/mL
Cc1ccc(F)cc1[C@H]1C/C(=N\N=C(N)N)c2c(C)cccc2C1,pIC50,[1],4.46
same,pIC50,[2],6.51
same,pIC50,[4],< 4.52
CN1Cc2c(Cl)cc(Cl)cc2C(c2cccc(S(=O)(=O)NCCOCCOCCNC(=O)Nc3ccc(NC(=O)NCCOCCOCCNS(=O)(=O)c4cccc(C5CN(C)Cc6c(Cl)cc(Cl)cc65)c4)cc3)c2)C1 (centres undefined),Activity,[5],120%
CN1Cc2c(Cl)cc(Cl)cc2C(c2cccc(S(=O)(=O)NCCOCCOCCNC(=O)NCCCCNC(=O)NCCOCCOCCNS(=O)(=O)c3cccc(C4CN(C)Cc5c(Cl)cc(Cl)cc54)c3)c2)C1 (centres undefined),Activity,[5],128%
CN1Cc2c(Cl)cc(Cl)cc2C(c2ccc(S(=O)(=O)NCCOCCOCCNC(=O)Nc3ccc(NC(=O)NCCOCCOCCNS(=O)(=O)c4ccc(C5CN(C)Cc6c(Cl)cc(Cl)cc65)cc4)cc3)cc2)C1 (centres undefined),Activity,[5],114%
"CN1Cc2c(Cl)cc(Cl)cc2C(c2cccc(S(=O)(=O)NCCOCCOCCOCCNC(=O)C(O)C(O)C(=O)NCCOCCOCCOCCNS(=O)(=O)c3cccc(C4CN(C)Cc5c(Cl)cc(Cl)cc54)c3)c2)C1 (single isomer, unassigned)",Activity,[5],125%
CN1Cc2c(Cl)cc(Cl)cc2[C@H](c2ccc(S(=O)(=O)NCCOCCOCCOCCNC(=O)NCCOCCOCCOCCNS(=O)(=O)c3ccc([C@@H]4CN(C)Cc5c(Cl)cc(Cl)cc54)cc3)cc2)C1 (mixture of isomers),Activity,[5],120%
CN1Cc2c(Cl)cc(Cl)cc2C(c2cccc(NC(=O)N[C@@H](CC(=O)O)C(=O)O)c2)C1 (some centres undefined),Cmax,[10],2.4 ng/mL
same,AUC at 4 h,[11],5 ng·h/mL
CN1Cc2c(Cl)cc(Cl)cc2C(c2ccc(S(=O)(=O)NCCOCCOCCNC(=O)COCC(=O)NCCOCCOCCNS(=O)(=O)c3ccc(C4CN(C)Cc5c(Cl)cc(Cl)cc54)cc3)cc2)C1 (centres undefined),Activity,[5],118%
"CN1Cc2c(Cl)cc(Cl)cc2[C@H](c2cccc(S(=O)(=O)NCCOCCOCCOCCNC(=O)NCCCCNC(=O)NCCOCCOCCOCCNS(=O)(=O)c3cccc([C@@H]4CN(C)Cc5c(Cl)cc(Cl)cc54)c3)c2)C1 (single isomer, unassigned)",Activity,[5],118%
same,Activity,[6],Dose-dependent effect
CN1Cc2c(Cl)cc(Cl)cc2C(c2ccc(S(=O)(=O)NCCOCCOCCNC(=O)C(=O)NCCOCCOCCNS(=O)(=O)c3ccc(C4CN(C)Cc5c(Cl)cc(Cl)cc54)cc3)cc2)C1 (centres undefined),Cmax,[8],8 ng/mL
same,AUC at 4 h,[9],6 ng·h/mL
Cc1ccc(F)cc1[C@@H]1C/C(=N\N=C(N)N)c2c(C)cccc2C1,pIC50,[1],9.00
same,pIC50,[2],6.37
same,pIC50,[4],4.96
C/C(=C\c1cc(F)c(Oc2ccc(S(=O)(=O)NCCP(=O)(O)O)cc2)c(F)c1)C(=O)N=C(N)N,Cmax,[10],9 ng/mL
same,AUC at 4 h,[11],23 ng·h/mL
